Series [1] deals with Acinetobacter calcoaceticus. In words: In vitro antimicrobial activity against Acinetobacter calcoaceticus 15473. The format is functional.
The next series relates to Bacillus subtilis. In words: In vitro antimicrobial activity against Bacillus subtilis ATCC 6633. The format is functional.
The subject of a further series is Citrobacter koseri. Kind of series: In vitro antimicrobial activity against Citrobacter diversus 2046E. The class given is functional.
Series [2] relates to Escherichia coli. Kind of series: In vitro antimicrobial activity against Escherichia coli 10536. The format is functional.
Series [3] has as its system Escherichia coli. Kind of series: In vitro antimicrobial activity against Escherichia coli 3190Y. The class given is functional.
The test system of series [4] is Escherichia coli. Kind of series: In vitro antimicrobial activity against Escherichia coli 851E. The class given is functional.
In series [5] the test system is Escherichia coli. Kind of series: In vitro antimicrobial activity against Escherichia coli TEM5 3739E. The format is functional.
In a further series the test system is Enterobacter cloacae. In words: In vitro antimicrobial activity against Enterobacter cloacae p99. The class given is functional.
Another series deals with Klebsiella aerogenes. In words: In vitro antimicrobial activity against Klebsiella aerogenes 1076E. The format is functional.
For another series, the system named is Micrococcus luteus. Kind of series: In vitro antimicrobial activity against Micrococcus luteus ATCC 9341. The class given is functional.
For another series, the system named is Pseudomonas aeruginosa. Kind of series: In vitro antimicrobial activity against Pseudomonas aeruginosa 1012E. The format is functional.
In the next series the test system is Salmonella typhimurium. In words: In vitro antimicrobial activity against Salmonella Typhimurium 14028. The class given is functional, Salmonella enterica subsp. enterica serovar Typhimurium. Particulars: Salmonella enterica.
Series [6] has as its system Staphylococcus epidermidis. Kind of series: In vitro antimicrobial activity against Staphylococcus epidermis 178. The format is functional.
Series [7] relates to Staphylococcus epidermidis. Kind of series: In vitro antimicrobial activity against Staphylococcus epidermis 887E. The class given is functional.
The subject of series [8] is Staphylococcus aureus. Kind of series: In vitro antimicrobial activity against Staphylococcus aureus 241. The class given is functional.
Series [9] relates to Staphylococcus aureus. Kind of series: In vitro antimicrobial activity against Staphylococcus aureus 77. The format is functional.
The subject of series [10] is Staphylococcus aureus. Kind of series: In vitro antimicrobial activity against Staphylococcus aureus giorgio. The class given is functional.
Series [11] relates to Escherichia coli. In words: In vitro antimicrobial activity against Escherichia coli 10536.
Series [12] is described as follows: Tmax value after administration of 20 mg/Kg oral dose in rat. The format is ADME, organism-based. Particulars: in vivo.
A short description of series [13]: Cmax value after administration of 20 mg/Kg oral dose in rat. To be noted: in vivo. The class given is ADME, organism-based. Also noted: dose 20 mg/Kg, route oral.
Series [14] in a line: AUC value after administration of 20 mg/Kg oral dose in rat. The class given is ADME, organism-based. Particulars: plasma.
Series [15] deals with Mus musculus. In words: In vivo efficacy against systemic infection of Pseudomonas aeruginosa 1912E in mouse. The class given is functional.
Series [16] has as its system Mus musculus. Kind of series: In vivo efficacy against systemic infection of Staphylococcus aureus giorgio in mouse. The format is functional.
The nature of series [17]: Tmax value after administration of 4 mg/Kg oral dose in dog. Particulars: in vivo. The class given is ADME, organism-based, Canis lupus familiaris.
The nature of series [18]: in vivo. To be noted: dog, po, 4 mg/kg.
Series [19] is described as follows: in vivo. To be noted: dog, in vivo, po, 4 mg/kg.

≈ marks a conversion by molar mass, not a printed value. Where only a bound is given, the exact number is not on record here.

In the case of `CO/N=C1\CN(c2nc3c(cc2F)c(=O)c(C(=O)O)cn3C2CC2)CC1N` (stereo unspecified), the minimal inhibitory concentration (MIC) in series [1] is 0.063 µg/mL (≈ 0.168 µM); against Bacillus subtilis it was at most 0.008 µg/mL; in the series on Citrobacter koseri, 0.063 µg/mL (≈ 0.168 µM); with Escherichia coli [2] it was at most 0.008 µg/mL; with Escherichia coli [3], at most 0.008 µg/mL; in the series on Escherichia coli [4] it was 0.063 µg/mL (≈ 0.168 µM). In addition, the MIC in the series with Escherichia coli [5] turned out to be 1 µg/mL (≈ 2.66 µM); in the series with Enterobacter cloacae, 0.016 µg/mL (≈ 0.0426 µM); with Klebsiella aerogenes, 0.25 µg/mL (≈ 0.666 µM); against Micrococcus luteus it was 1 µg/mL (≈ 2.66 µM); in the series with Pseudomonas aeruginosa, 2 µg/mL (≈ 5.33 µM); in the series with Salmonella typhimurium, 0.13 µg/mL (≈ 0.346 µM). In addition, the MIC is 8 µg/mL (≈ 21.3 µM) in series [6]; 0.063 µg/mL (≈ 0.168 µM) in series [7]; 8 µg/mL (≈ 21.3 µM) with Staphylococcus aureus [8]; 0.063 µg/mL (≈ 0.168 µM) in the series on Staphylococcus aureus [9]; 0.063 µg/mL (≈ 0.168 µM) in the series with Staphylococcus aureus [10].
Regarding `C=CCO/N=C1\CN(c2c(F)cc3c(=O)c(C(=O)O)cn(C4CC4)c3c2F)CC1N` (stereo unspecified), the MIC in series [1] is 0.031 µg/mL (≈ 0.0741 µM); with Bacillus subtilis, at most 0.008 µg/mL; with Citrobacter koseri, 0.13 µg/mL (≈ 0.311 µM); in the series with Escherichia coli [2], 0.031 µg/mL (≈ 0.0741 µM); in the series with Escherichia coli [3], at most 0.008 µg/mL; in the series with Escherichia coli [4] it was 0.063 µg/mL (≈ 0.151 µM). In addition, the MIC against Escherichia coli [5] is 0.5 µg/mL (≈ 1.2 µM); in the series with Enterobacter cloacae, 0.031 µg/mL (≈ 0.0741 µM); against Klebsiella aerogenes, 0.25 µg/mL (≈ 0.598 µM); in the series with Micrococcus luteus, 0.25 µg/mL (≈ 0.598 µM); with Pseudomonas aeruginosa it was 2 µg/mL (≈ 4.78 µM); in the series on Salmonella typhimurium, 0.25 µg/mL (≈ 0.598 µM). The MIC came to 2 µg/mL (≈ 4.78 µM) in [6]; 0.016 µg/mL (≈ 0.0382 µM) in series [7]; 2 µg/mL (≈ 4.78 µM) against Staphylococcus aureus [8]; 0.031 µg/mL (≈ 0.0741 µM) in the series on Staphylococcus aureus [9]; 0.016 µg/mL (≈ 0.0382 µM) in the series with Staphylococcus aureus [10].
As to `CO/N=C1/CN(c2c(F)cc3c(=O)c(C(=O)O)cn(C4CC4)c3c2Cl)CC1N` (stereo unspecified), the MIC is 0.031 µg/mL (≈ 0.0758 µM) in [1]; at most 0.008 µg/mL in the series on Bacillus subtilis; 0.063 µg/mL (≈ 0.154 µM) against Citrobacter koseri; at most 0.008 µg/mL against Escherichia coli [3]; 0.031 µg/mL (≈ 0.0758 µM) with Escherichia coli [4]; 0.25 µg/mL (≈ 0.612 µM) against Escherichia coli [5]. For the same compound, the minimum inhibitory concentration (MIC) came to 0.016 µg/mL (≈ 0.0391 µM) with Enterobacter cloacae; 0.25 µg/mL (≈ 0.612 µM) with Klebsiella aerogenes; 0.13 µg/mL (≈ 0.318 µM) against Micrococcus luteus; 2 µg/mL (≈ 4.89 µM) against Pseudomonas aeruginosa; 0.13 µg/mL (≈ 0.318 µM) with Salmonella typhimurium; 0.5 µg/mL (≈ 1.22 µM) in [6]. The MIC in [7] is 0.016 µg/mL (≈ 0.0391 µM); in the series with Staphylococcus aureus [8] it was 0.5 µg/mL (≈ 1.22 µM); against Staphylococcus aureus [9] it was 0.016 µg/mL (≈ 0.0391 µM); against Staphylococcus aureus [10] it was 0.016 µg/mL (≈ 0.0391 µM); with Escherichia coli [11], 0.016 µg/mL (≈ 0.0391 µM).
In the case of `O=C(O)c1cn(C2CC2)c2cc(N3CCNCC3)c(F)cc2c1=O` [CIPROFLOXACIN], the Tmax in series [12] was found to be 6.6 min; in series [17], 67.2 min. Moreover, the Cmax in [13] stood at 900 ng/mL; in “in vivo [18]”, 910 ng/mL. The exposure (AUC) in series [14] was 2590 ng·h/mL; in “in vivo [19]”, 4540 ng·h/mL. Besides, the MIC is 0.25 µg/mL (≈ 0.754 µM) in series [1]; 0.031 µg/mL (≈ 0.0936 µM) against Bacillus subtilis; 0.016 µg/mL (≈ 0.0483 µM) with Citrobacter koseri; at most 0.008 µg/mL against Escherichia coli [2]; at most 0.008 µg/mL against Escherichia coli [3]; 0.13 µg/mL (≈ 0.392 µM) against Escherichia coli [5]. In addition, the MIC worked out at 0.13 µg/mL (≈ 0.392 µM) against Klebsiella aerogenes; 4 µg/mL (≈ 12.1 µM) against Micrococcus luteus; 0.13 µg/mL (≈ 0.392 µM) against Pseudomonas aeruginosa; 0.031 µg/mL (≈ 0.0936 µM) against Salmonella typhimurium; 128 µg/mL (≈ 386 µM) in [6]; 0.13 µg/mL (≈ 0.392 µM) in series [7]. The MIC against Staphylococcus aureus [8] was 128 µg/mL (≈ 386 µM); against Staphylococcus aureus [9], 0.25 µg/mL (≈ 0.754 µM); against Staphylococcus aureus [10], 0.25 µg/mL (≈ 0.754 µM). The ED50 with Mus musculus [15] came to 3.11 mg/kg; in the series on Mus musculus [16], 7.46 mg/kg.
`NC1CN(c2c(F)cc3c(=O)c(C(=O)O)cn(C4CC4)c3c2F)C/C1=N\O` (stereo unspecified): the MIC was 0.5 µg/mL (≈ 1.32 µM) in series [1]; 0.063 µg/mL (≈ 0.167 µM) with Bacillus subtilis; 0.13 µg/mL (≈ 0.344 µM) against Citrobacter koseri; 0.016 µg/mL (≈ 0.0423 µM) in the series on Escherichia coli [2]; at most 0.008 µg/mL against Escherichia coli [3]; 0.031 µg/mL (≈ 0.0819 µM) in the series with Escherichia coli [4]. For the same compound, the MIC with Escherichia coli [5] was 0.5 µg/mL (≈ 1.32 µM); with Enterobacter cloacae, 0.031 µg/mL (≈ 0.0819 µM); in the series on Klebsiella aerogenes it was 0.5 µg/mL (≈ 1.32 µM); against Micrococcus luteus, 0.25 µg/mL (≈ 0.661 µM); in the series with Pseudomonas aeruginosa it was 1 µg/mL (≈ 2.64 µM); against Salmonella typhimurium it was 0.63 µg/mL (≈ 1.67 µM). Also, the minimal inhibitory concentration (MIC) in series [6] turned out to be 64 µg/mL (≈ 169 µM); in [7], 0.13 µg/mL (≈ 0.344 µM); in the series on Staphylococcus aureus [8], 32 µg/mL (≈ 84.6 µM); in the series on Staphylococcus aureus [9], 0.063 µg/mL (≈ 0.167 µM); with Staphylococcus aureus [10], 0.063 µg/mL (≈ 0.167 µM).

By MIC is commonly meant the lowest concentration found to suppress growth. One may read the Tmax as the time from dosing to the highest level. Broadly, the Cmax is the peak of the concentration-time curve. As usually defined, the AUC is concentration integrated over time. Read a high AUC as high exposure. A word on the ED50: it is the dose at which the effect has come halfway, by size or by number of responders. A lower ED50 goes with greater potency.

(Values after ChEMBL document CHEMBL1130731, “Methyloxime-substituted aminopyrrolidine: a new surrogate for 7-basic group of quinolone” (Bioorg Med Chem Lett, 1998).)
